This note sets out measurements from patent US9586986B2, “Substituted 7-deazapurine ribonucleosides for therapeutic uses” (Institute of Organic Chemistry and Biochemistry ASCR, v.v.i., priority 2014, dated 2017).

Structures are written as SMILES.

Holding throughout (format): cell-based
The subject of test [1] is HCV subtype 1B replicon in Huh-7 cells. The test can be described thus: HCV sub-genomic reporter replicon assay, subtype 1B. The note with it: Hepatitis C virus; Huh-7 cells, HCV subtype 1B replicon; read-out: Replicon 1B EC50. The method, then: Compounds were also tested in Huh-7 cells harboring sub-genomic reporter replicons derived from HCV subtypes 1B and 2A (ref.: Stuyver, L. J.; Whitaker, T.; McBrayer, T. R.; Hernandez-Santiago, B. I.; Lostia, S.; Tharnish, P. M.; Ramesh, M.; Chu, C. K.; Jordan, R.; Shi, J. X.; Rachakonda, S.; Watanabe, K. A.; Otto, M. J.; Schinazi, R. F. Antimicrob. Agents Chemother. 2003, 47, 244-254).
(A replicon is a self-replicating genome or part of one, used to study replication in cells.)

In another test the test system is HCT116. The test is described as follows: Cytostatic/cytotoxic MTT assay, HCT116. As to conditions: Homo sapiens, HCT-116; 72 h incubation; read-out: MTT, IC50 HCT116. From the text:
(§1) Unless otherwise stated, all cells were purchased from the […] (ATCC). The CCRF-CEM line is derived from T lymphoblastic leukemia, evincing high chemosenzitivity, K562 represent cells from a […] patient sample with bcr-abl translocation, HCT116 is colorectal tumor cell line and its p53 gene knock-down counterpart (HCT116p53−/−, Horizon Discovery, UK) is a model of human cancers with p53 inactivation frequently associated with poor prognosis, A549 cell line is lung adenocarcinoma. The daunorubicin resistant subline of CCRF-CEM cells (CEM-DNR bulk) and paclitaxel resistant subline K562-TAX were selected in our laboratory by cultivation of maternal cell lines in increasing concentrations of daunorubicine or paclitaxel, respectively. The CEM-DNR cells overexpress mrp-1 and mdr-1 genes, while K562-TAX cells overexpress mdr-1 only. Both proteins belong to the family of ABC transporters and are involved in the primary and/or acquired multidrug resistance phenomenon (ref.: Gottesman, M. M.; Fojo, T.; Bates, S. E. Multidrug resistance in cancer: role of ATP-dependent transporters. Nat. Rev. Cancer. 2002, 2, 48-58. (b) Noskova, V.; Dzubak, P.; Kuzmina, G.; Ludkova, A.; Stehlik, D.; Trojanec, R.; Janostakova, A.; Korinkova, G.; Mihal, V.; Hajduch, M. In vitro chemoresistance profile and expression/function of MDR associated proteins in resistant cell lines derived from CCRF-CEM, K562, A549 and MDA MB 231 parental cells. Neoplasma 2002, 49, 418-425). Non-malignant MRC-5 and BJ cells, derived from normal human fibroblasts, were used as controls. The cells were maintained in Nunc/Corning 80 cm^2 plastic tissue culture flasks and cultured in cell culture medium (DMEM/RPMI 1640 with 5 g/L glucose, 2 mM glutamine, 100 U/mL penicillin, 100 µg/mL streptomycin, 10% fetal calf serum, and NaHCO3). Cell suspensions were prepared and diluted according to the particular cell type and the expected target cell density (25,000-30,000 cells/well based on cell growth characteristics). Cells were added by pipette (80 L) into 96-well microtiter plates. Inoculates were allowed a pre-incubation period of 24 h at 37° C. and 5% CO2 for stabilization. Four-fold dilutions, in 20-L aliquots, of the intended test concentration were added to the microtiter plate walls at time zero. All test compound concentrations were examined in duplicate. Incubation of the cells with the test compounds lasted for 72 h at 37° C., in a 5% CO2 atmosphere at 100% humidity. At the end of the incubation period, the cells were assayed using MTT. Aliquots (10 L) of the MTT stock solution (5 mg/ml) were pipetted into each well and incubated for another 1-4 h. After this incubation period the formazan produced was dissolved by addition of 100 µL/well of 10% aq SDS (pH 5.5), followed by a further incubation at 37° C. overnight. The optical density was measured at 540 nm. The IC50 value, the drug concentration inhibiting the cell growth by 50%, was calculated from appropriate dose-response curves.
(§2) In vitro cytotoxic/cytostatic activity final nucleosides 1-5 was initially evaluated against […] cell lines derived from human solid tumors including lung (A549 cells) and colon (HCT116 and HCT116p53−/−) carcinomas, as well as leukemia cell lines (CCRF-CEM, CEM-DNR, K562 and K562-TAX) and, for comparison, non-malignant BJ and MRC-5 fibroblasts. Concentrations inhibiting the cell growth by 50% (IC50) were determined using a quantitative metabolic staining with 3-(4,5-dimethylthiazol-2-yl)-2,5-diphenyltetrazolium bromide (MTT) (ref.: Denizot, F.; Lang, R. Rapid colorimetric assay for cell growth and survival: Modifications to the tetrazolium dye procedure giving improved sensitivity and reliability. J. Immunol. Meth. 1986, 89, 271-277) following a 3-day treatment.
(§3) Multidrug resistance is a major therapeutic problem in cancer chemotherapy. […]

The test system of another test is MRC-5. The test can be described thus: Cytostatic/cytotoxic MTT assay, MRC-5 fibroblasts. As to conditions: Homo sapiens, MRC5; non-malignant fibroblasts, 72 h; read-out: MTT, IC50 MRC-5.
Excerpt: as §1, §2
(In general: Formazan colour is commonly taken as a measure of viable cells.)

The test system of a further test is HL60. The test is described as follows: XTT cytotoxicity assay, HL-60. The note with it: Homo sapiens, HL-60; 72 h incubation; read-out: XTT, IC50 HL60. The method, then:
HL-60, Hela S3 and HepG2 cell lines (ATCC) were grown in RPMI-1640 or DMEM medium supplemented with 10% fetal calf serum, […] of streptomycin, 200 U/mL of penicillin G and 4 mM glutamine in a humidified atmosphere containing 5% CO2 at 37° C. Sensitivity of these cell lines to the synthesized compounds was assessed with the use of XTT cell proliferation kit II (Roche Diagnostics GmbH, Mannheim, Germany) according to the manufacturer's instructions. Briefly, cells were seeded in a 96-well plate at a density of 10,000 cells per well (90 μL). After 24 h, 10 μL of the tested compounds were added to the culture media at desired concentration range and incubated for 72 h. After that 50 μL of the XTT solution was added (1 mg/mL XTT+0.383 mg/mL N-methyl dibenzopyrazine methyl sulfate). The absorbance was recorded at 495 nm following a 2 h-incubation with the dye. IC50 values were determined by non-linear regression method using GraphPad Prism version 5.00 for Windows (GraphPad Software, La Jolla, Calif., USA).
In addition, the anti-proliferative effect was tested against a human T-lymphoblastic leukemia line CCRF-CEM, promyelocytic leukemia HL-60 and cervical carcinoma HeLa S3 growing in liquid suspension. Cell viability was determined following a 3-day incubation using 2,3-bis-(2-methoxy-4-nitro-5-sulfophenyl)-2H-tetrazolium-5-carboxanilide (XTT) assay (ref.: Scudiero, D. A.; Shoemaker, R. H.; Paull, K. D.; Monks, A.; Tierney, S.; Nofziger, T. H.; Currens, M. J.; Seniff, D.; Boyd M. R. Evaluation of a Soluble Tetrazolium/Formazan Assay for Cell Growth and Drug Sensitivity in Culture Using Human and Other Tumor Cell Lines. Cancer Res. 1988, 48, 4827-4833).

The subject of the next test is A549. The test can be described thus: Cytostatic/cytotoxic MTT assay, A549. As to conditions: Homo sapiens, A549; 72 h incubation; read-out: MTT, IC50 A549.
Excerpt: as §1, §2

The test system of the next test is CEM-DNR-bulk. The test can be described thus: Cytostatic/cytotoxic MTT assay, CEM-DNR-bulk. The note with it: Homo sapiens; daunorubicin resistant subline, 72 h; read-out: MTT, IC50 CEM-DNR-bulk.
Excerpt: as §1, §2, §3

The term EC50 denotes the concentration that produces a half-maximal response. Broadly, the IC50 is the concentration that inhibits the measured activity by half. In the case of `COc1ncnc2c1c(-c1ccco1)cn2[C@@H]1O[C@H](CO)[C@@H](O)[C@H]1O` [Compound 1a, 5-(Furan-2-yl)-4-methoxy-7-(β-D-ribofuranosyl)-7H-pyrrolo[2,3-d]pyrimidine], the half-maximal effective concentration (EC50) in test [1] came out at 0.02 µM. Also, the IC50 in the test with HCT116 turned out to be 0.04 µM; in the test on MRC-5, 1.7 µM; with HL60, 0.1 µM; in the test with A549, 0.03 µM; in the test with CEM-DNR-bulk, 0.16 µM.

With `COc1ncnc2c1c(-c1ccoc1)cn2[C@@H]1O[C@H](CO)[C@@H](O)[C@H]1O` [Compound 1b, 5-(Furan-3-yl)-4-methoxy-7-(β-D-ribofuranosyl)-7H-pyrrolo[2,3-d]pyrimidine], in test [1], the EC50 came to 0.33 µM. In addition, the IC50 was 0.11 µM in the test with HCT116; 29.4 µM with MRC-5; 0.15 µM in the test on HL60; 1.16 µM in the test with A549; more than 20 µM with CEM-DNR-bulk.

`COc1ncnc2c1c(-c1cccs1)cn2[C@@H]1O[C@H](CO)[C@@H](O)[C@H]1O` [Compound 1c, 4-Methoxy-7-(β-D-ribofuranosyl)-5-(thiophen-2-yl)-7H-pyrrolo[2,3-d]pyrimidine]: the EC50 in test [1] came out at 1.08 µM. The IC50 in the test with HCT116 was 0.08 µM; with MRC-5, 43.2 µM; in the test with HL60, 0.08 µM; in the test on A549, 4.85 µM; in the test on CEM-DNR-bulk, 12.1 µM.

On to `COc1ncnc2c1c(-c1ccsc1)cn2[C@@H]1O[C@H](CO)[C@@H](O)[C@H]1O` [Compound 1d, 4-Methoxy-7-(β-D-ribofuranosyl)-5-(thiophen-3-yl)-7H-pyrrolo[2,3-d]pyrimidine], for which the EC50 in test [1] was 0.55 µM. In addition, the concentration for half-maximal inhibition (IC50) in the test with HCT116 worked out at 0.12 µM; in the test on MRC-5 it was 75.3 µM; in the test on HL60, 0.13 µM; in the test on A549 it was 5.17 µM; in the test on CEM-DNR-bulk, 7.64 µM.

For `COc1ncnc2c1c(-c1ccccc1)cn2[C@@H]1O[C@H](CO)[C@@H](O)[C@H]1O` [Compound 1e, 4-Methoxy-5-phenyl-7-(β-D-ribofuranosyl)-7H-pyrrolo[2,3-d]pyrimidine], the EC50 in test [1] was determined as 21 µM. Besides, the IC50 in the test on HCT116 was more than 20 µM; in the test on MRC-5, more than 100 µM; in the test on HL60 it was more than 20 µM; in the test on A549, more than 20 µM; with CEM-DNR-bulk, more than 20 µM.

As to `COc1ncnc2c1c(-c1cc3ccccc3o1)cn2[C@@H]1O[C@H](CO)[C@@H](O)[C@H]1O` [Compound 1f, 5-(Benzofuran-2-yl)-4-methoxy-7-(β-D-ribofuranosyl)-7H-pyrrolo[2,3-d]pyrimidine], in test [1], the 50% effective concentration (EC50) came to 2.64 µM. Further, the IC50 with HCT116 was 13.8 µM; with MRC-5, 65.6 µM; in the test on HL60 it was 4.47 µM; in the test on A549, 17.7 µM; in the test with CEM-DNR-bulk, 10.8 µM.

In the case of `C#Cc1cn([C@@H]2O[C@H](CO)[C@@H](O)[C@H]2O)c2ncnc(OC)c12` [Compound 1g, 5-Ethynyl-4-methoxy-7-(β-D-ribofuranosyl)-7H-pyrrolo[2,3-d]pyrimidine], the concentration for a half-maximal effect (EC50) in test [1] was found to be 0.18 µM. For the same compound, the IC50 in the test on HCT116 is 4.06 µM; with MRC-5, more than 100 µM; in the test with HL60 it was 0.19 µM; in the test with A549, 8.16 µM; with CEM-DNR-bulk, 3.49 µM.

Turning to `COc1ncnc2c1c(I)cn2[C@@H]1O[C@H](CO)[C@@H](O)[C@H]1O` [Compound 1h, 5-iodo-4-methoxy-7-(β-D-ribofuranosyl)-7H-pyrrolo[2,3-d]pyrimidine, reference compound], the EC50 in test [1] was more than 44 µM. For the same compound, the IC50 is more than 20 µM in the test on HCT116; 63 µM in the test with MRC-5; 2.3 µM in the test on HL60; more than 20 µM with A549; more than 20 µM in the test on CEM-DNR-bulk.

Take `CSc1ncnc2c1c(-c1ccco1)cn2[C@@H]1O[C@H](CO)[C@@H](O)[C@H]1O` [Compound 2a, 5-(Furan-2-yl)-4-methylsulfanyl-7-(β-D-ribofuranosyl)-7H-pyrrolo[2,3-d]pyrimidine]: the 50% effective concentration (EC50) in test [1] came to 0.07 µM. The 50% inhibitory concentration (IC50) with HCT116 was 0.02 µM; in the test on MRC-5 it was 73.9 µM; in the test on HL60, 0.12 µM; in the test on A549, 0.05 µM; in the test with CEM-DNR-bulk it was 0.23 µM.

Consider `CSc1ncnc2c1c(-c1ccoc1)cn2[C@@H]1O[C@H](CO)[C@@H](O)[C@H]1O` [Compound 2b, 5-(Furan-3-yl)-4-methylsulfanyl-7-(β-D-ribofuranosyl)-7H-pyrrolo[2,3-d]pyrimidine], for which the EC50 in test [1] amounted to 4.72 µM. Also, the half-maximal inhibitory concentration (IC50) with HCT116 is 0.04 µM; in the test with MRC-5, more than 100 µM; in the test with HL60 it was 0.36 µM; with A549, 0.28 µM; with CEM-DNR-bulk, more than 20 µM.

In the case of `CSc1ncnc2c1c(-c1cccs1)cn2[C@@H]1O[C@H](CO)[C@@H](O)[C@H]1O` [Compound 2c, 4-Methylsulfanyl-7-(β-D-ribofuranosyl)-5-(thiophen-2-yl)-7H-pyrrolo[2,3-d]pyrimidine], the EC50 in test [1] was found to be 5.42 µM. Moreover, the IC50 is more than 20 µM in the test on HCT116; more than 100 µM in the test with MRC-5; 1.13 µM in the test with HL60; more than 20 µM with A549; more than 20 µM in the test with CEM-DNR-bulk.

For the compound `CSc1ncnc2c1c(-c1ccsc1)cn2[C@@H]1O[C@H](CO)[C@@H](O)[C@H]1O` [Compound 2d, 4-Methylsulfanyl-7-(β-D-ribofuranosyl)-5-(thiophen-3-yl)-7H-pyrrolo[2,3-d]pyrimidine], the EC50 in test [1] came to 10.9 µM. The IC50 is more than 20 µM in the test on HCT116; more than 100 µM in the test with MRC-5; 4.59 µM in the test with HL60; more than 20 µM with A549; more than 20 µM in the test on CEM-DNR-bulk.
